According to patent US12365687B2 (Hoffmann-La Roche Inc., priority 2021, dated 2025):

Columns and labels:
[1] = biological target: α2β2γ1 GABAA receptor subtype (Homo sapiens (Human), UniProt P47869+Q8N1C3); experiment: Two-electrode voltage clamp electrophysiology in Xenopus oocytes expressing GABAA receptors (modulation of GABA EC20 current); assay type: cell-based; conditions: for Efficacy (GABA)%: % modulation of GABA EC20 = 100*(Fold increase-1), α2β2γ1 oocytes, compound at approx. 30-fold Ki; for Fold increase h-GABA-A α2β2γ1 oocyte @ 30-fold Ki: Xenopus oocytes expressing α2β2γ1, compound at approx. 30-fold its Ki α2β2γ1, GABA EC20 current
In short: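 Two-electrode voltage clamp at −80 mV, room temperature, 3-5 days after mRNA injection into oocytes. GABA applied at EC20 for 1.5 min, twice, with compound during second application; at least 3 oocytes per concentration. Efficacy = extremum of point-by-point current ratio, expressed as 100×(fold increase−1).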

[2] = biological target: human GABAA α1β3γ2 receptor (Homo sapiens (Human), UniProt P14867+P18507); experiment: Radioligand binding assay for γ2-containing GABAA subtypes, [3H]Flumazenil competition (α1β3γ2); conditions: for γ2/γ1 Selectivity Ratio: Ki α1β3γ2 (nM)/Ki α2β2γ1 (nM); for LogSel: Log[Ki α1β3γ2 (nM)/Ki α2β2γ1 (nM)]
[3] = biological target: human GABAA α2β2γ1 receptor (Homo sapiens (Human), UniProt P47869+Q8N1C3); experiment: Radioligand binding assay for γ1-containing GABAA subtypes, [3H]RO7239181 competition (α2β2γ1)
[4] = biological target: human GABAA α5β2γ1 receptor (Homo sapiens (Human), UniProt P31644+Q8N1C3); experiment: Radioligand binding assay for γ1-containing GABAA subtypes, [3H]RO7239181 competition (α5β2γ1)
[5] = Ki h-GABAA α2β2γ1, [3H]RO7239181 competition binding, human GABAA α2β2γ1
[6] = Ki h-GABAA α2β2γ1, displacement of [3H]RO7239181, membranes of HEK293F cells expressing human receptors, means of two determinations

Structure (SMILES)	Efficacy (GABA)% [1] [%]	Fold increase h-GABA-A α2β2γ1 oocyte @ 30-fold Ki [1]	Ki [2] [nM]	γ2/γ1 Selectivity Ratio [2]	LogSel [2]	Ki [3, 5] [nM]	Ki [3, 6] [nM]	Ki [4] [nM]
C[C@@H]1N=C(c2c(F)cccc2F)c2c(ccc(Cl)c2Cl)-n2nc(C(=O)N3CC(F)C3)nc21 [Example 40, [(4S)-7,8-dichloro-6-(2,6-difluorophenyl)-4-methyl-4H-[1,2,4]triazolo[1,5-a][1,4]benzodiazepin-2-yl]-(3-fluoroazetidin-1-yl)methanone]	89	1.89	672	91.4	1.96	7.4	7.35	0.9
COC1CN(C(=O)c2cn3c(n2)CN=C(c2c(F)cccc2F)c2c-3ccc(Cl)c2Cl)C1 [Example 2, (7,8-dichloro-6-(2,6-difluorophenyl)-4H-benzo[f]imidazo[1,2-a][1,4]diazepin-2-yl)(3-methoxyazetidin-1-yl)methanone]	42	1.42	255	39.3	1.59	6.5	6.5	1.26
Cc1nc2n(n1)-c1ccc(Cl)c(Cl)c1C(c1c(F)cccc1F)=NC2 [Example 32, 7,8-dichloro-6-(2,6-difluorophenyl)-2-methyl-4H-[1,2,4]triazolo[1,5-a][1,4]benzodiazepine]	26	1.26	163	67.1	1.83	2.4	2.44	0.6
C[C@@H]1N=C(c2ncccc2F)c2c(ccc(C(F)(F)F)c2Cl)-n2cc(C(=O)N3CC(C)(O)C3)nc21 [Example 160, (3-hydroxy-3-methyl-azetidin-1-yl)-[(4S)-7-chloro-6-(3-fluoro-2-pyridyl)-4-methyl-8-(trifluoromethyl)-4H-imidazo[1,2-a][1,4]benzodiazepin-2-yl]methanone]	177	2.77	13300	201.1	2.30	66.4	66.3	19.2
C[C@@H]1N=C(c2ncccc2F)c2c(ccc(Cl)c2Cl)-n2nc(C(=O)N3CC4(CCCO4)C3)nc21 [Example 97, [(4S)-7,8-dichloro-6-(3-fluoro-2-pyridyl)-4-methyl-4H-[1,2,4]triazolo[1,5-a][1,4]benzodiazepin-2-yl]-(5-oxa-2-azaspiro[3.4]octan-2-yl)methanone]	95	1.95	3590	242.0	2.38	14.8	14.8	8.64
C[C@@H]1N=C(c2c(F)cccc2F)c2c(ccc(Cl)c2Cl)-n2nc(N3CCS(=O)(=O)CC3)nc21 [Example 52, 4-[(4S)-7,8-dichloro-6-(2,6-difluorophenyl)-4-methyl-4H-[1,2,4]triazolo[1,5-a][1,4]benzodiazepin-2-yl]-1,4-thiazinane 1,1-dioxide]	41	1.41	578	46.6	1.67	12.4	12.4	1.26
C[C@@H]1N=C(c2ncccc2F)c2c(ccc(C(F)(F)F)c2Cl)-n2nc(C(=O)N3CCS(=O)(=O)CC3)nc21 [Example 124, [(4S)-7-chloro-6-(3-fluoro-2-pyridyl)-4-methyl-8-(trifluoromethyl)-4H-[1,2,4]triazolo[1,5-a][1,4]benzodiazepin-2-yl]-(1,1-dioxo-1,4-thiazinan-4-yl)methanone]	145	2.45	14400	547.2	2.74	26.2	26.2	6.32
C[C@@H]1N=C(c2c(F)cccc2F)c2c(ccc(C(F)(F)F)c2Cl)-n2nc(C(=O)NN3CCCC3)nc21 [Example 118, (4S)-7-chloro-6-(2,6-difluorophenyl)-4-methyl-N-pyrrolidin-1-yl-8-(trifluoromethyl)-4H-[1,2,4]triazolo[1,5-a][1,4]benzodiazepine-2-carboxamide]	120	2.20	4450	182.7	2.26	24.4	24.4	4.18
Cc1nc2n(n1)-c1ccc(C(F)(F)F)c(Cl)c1C(c1c(F)cccc1F)=N[C@H]2C [Example 29, (4S)-7-chloro-6-(2,6-difluorophenyl)-2,4-dimethyl-8-(trifluoromethyl)-4H-[1,2,4]triazolo[1,5-a][1,4]benzodiazepine]	80	1.80	1090	109.1	2.04	10	10	0.69
C[C@@H]1N=C(c2ncccc2F)c2c(ccc(C(F)(F)F)c2Cl)-n2nc(C(=O)N3CC4(COC4)C3)nc21 [Example 112, [(4S)-7-chloro-6-(3-fluoro-2-pyridyl)-4-methyl-8-(trifluoromethyl)-4H-[1,2,4]triazolo[1,5-a][1,4]benzodiazepin-2-yl]-(2-oxa-6-azaspiro[3.3]heptan-6-yl)methanone]	136	2.36	> 30000	484.1	2.68	62	62	9.85
Cc1cnc2n1-c1ccc(Cl)c(Cl)c1C(c1c(F)cccc1F)=N[C@H]2C [Example 111, (4S)-7,8-dichloro-6-(2,6-difluorophenyl)-1,4-dimethyl-4H-imidazo[1,2-a][1,4]benzodiazepine]	35	1.35	235	45.6	1.66	5.2	5.16	1.24
[2H]C([2H])([2H])NC(=O)c1nc2n(n1)-c1ccc(Cl)c(Cl)c1C(c1c(F)cccc1F)=N[C@H]2C [Example 20, (4S)-7,8-dichloro-6-(2,6-difluorophenyl)-4-methyl-N-(trideuteriomethyl)-4H-[1,2,4]triazolo[1,5-a][1,4]benzodiazepine-2-carboxamide]	78	1.78	593	113.1	2.05	5.2	5.24	0.89
C[C@@H]1N=C(c2c(F)cccc2F)c2c(ccc(Cl)c2Cl)-n2nc(C(=O)N3CC(C#N)C3)nc21 [Example 41, 1-[(4S)-7,8-dichloro-6-(2,6-difluorophenyl)-4-methyl-4H-[1,2,4]triazolo[1,5-a][1,4]benzodiazepine-2-carbonyl]azetidine-3-carbonitrile]	67	1.67	389	118.6	2.07	3.3	3.28	0.74
CO[C@@H]1CCN(C(=O)c2nc3n(n2)-c2ccc(Cl)c(Cl)c2C(c2c(F)cccc2F)=N[C@H]3C)C1 [Example 46, [(4S)-7,8-dichloro-6-(2,6-difluorophenyl)-4-methyl-4H-[1,2,4]triazolo[1,5-a][1,4]benzodiazepin-2-yl]-[(3R)-3-methoxypyrrolidin-1-yl]methanone]	73	1.73	867	146.6	2.17	5.9	5.91	2.14
C[C@@H]1N=C(c2ncccc2F)c2c(ccc(C(F)(F)F)c2Cl)-n2c(CO)cnc21 [Example 151, [(4S)-7-chloro-6-(3-fluoro-2-pyridyl)-4-methyl-8-(trifluoromethyl)-4H-imidazo[1,2-a][1,4]benzodiazepin-1-yl]methanol]	253	3.53	13200	142.0	2.15	92.8	92.8	24
C[C@@H]1N=C(c2ncccc2F)c2c(ccc(Cl)c2Cl)-n2nc(C(=O)N3CC4(CCO4)C3)nc21 [Example 98, [(4S)-7,8-dichloro-6-(3-fluoro-2-pyridyl)-4-methyl-4H-[1,2,4]triazolo[1,5-a][1,4]benzodiazepin-2-yl]-(1-oxa-6-azaspiro[3.3]heptan-6-yl)methanone]	158	2.58	8110	99.2	2.00	81.7	81.8	29.8
